The values below come from patent US20210046002A1, “AMELIORATION OF AUTOIMMUNE UVEITIS THROUGH BLOCKADE OF CSF1R” (Massachusetts Eye and Ear Infirmary, priority 2018, published 2021).

The subject of data set [1] is EAU. The data set can be described thus: Active immunization EAU, clinical and histopathological score. The class given is in vivo, C57BL/6 mice.
The subject of another data set is retinal microglia. The data set can be described thus: Retinal microglia depletion by chow containing CSF1R inhibitor. The class given is in vivo. The settings on record: inhibitor-treated mice. The source says: The images of whole mount retinas were taken by a confocal microscopy (SP5 or SP8; Leica, Buffalo Grove, Ill., USA) or an epifluorescent microscopy (Axio Observer Z1; Carl Zeiss, Bayern, Germany). For microglial cell number counting, microglial cell bodies were manually counted based on the z-stack images. For microglial density evaluation, maximum intensity z-stack images were created and the images were processed with the smooth, the make binary, and the watershed tools. The area of particles was then calculated using the analyze particles tool, setting the size range to 5-1000. Amira 5 software (FEI, Hillsboro, Oreg., USA) was used to make 3D-reconstruction images.
Microglia depletion was performed using Cx3cr1^CreER×B6-iDTR (TG) mice or chow containing a small molecule CSFR1 inhibitor (Plexxikon Inc, Berkely, Calif., USA). To generate TG mice, Cx3cr1^CreER mice, which express Cre-ER fusion protein from endogenous CX3CR1 promoter enhance elements, were crossed with B6-iDTR mice, which contain a flox-STOP-flox diphtheria toxin receptor (DTR) in the ROSA26 locus. In this TG mice system, the Cre recombinase activation under the control of the Cx3cr1 promoter can be induced by tamoxifen, which leads to the surface expression of DTR on CX3CR1-expressing cells. […]

The next data set relates to IRBP-p. The data set can be described thus: Delayed hypersensitivity (ear swelling) against IRBP-p. As to conditions: IRBP-immunized animals, day 21. Format: in vivo, C57BL/6 mice. The protocol: Ag-specific delayed hypersensitivity (DH) was measure as previously described. On day 19 after immunization, mice were injected intradermally with 10 μg/10 μl of IRBP-p suspended in PBS into the pinna of one ear. Ear swelling was measured after 24 and 48 h using a micrometer (Mitutoyo, Tokyo, Japan). DH was measured as the difference in ear thickness before and after challenge. Results were expressed as: specific ear swelling=(24-h measurement−0-h measurement) for test ear−(24-h measurement−0-h measurement) for control ear.

Data set [2] relates to lymph node and spleen cells. The data set can be described thus: Lymphocyte proliferation assay (modified MTT) of lymph node and spleen cells. Format: cell-based, C57BL/6 mice. As to conditions: IRBP-immunized animals, lymph nodes and spleens, day 14 and 21. The protocol:
The draining LN and spleens were collected and the cells were suspended at 2×10^5 per 200 μL medium in 96-well flat-bottom plates. Triplicated cells were cultured in the presence of 10 μg/mL IRBP-p, 1 μg/mL Concanavalin A (Con A; Sigma-Aldrich), or medium alone. After incubation for three days, 100 μl of supernatant in the culture medium was collected. Cell proliferation during the last 4 hours of 72 hours cultures was measured by modified MTT assay using Cell Counting Kit-8 (Sigma-Aldrich).

Data set [3] can be described thus: Lymph node and spleen weight in EAU. Format: in vivo, C57BL/6 mice. As to conditions: day 21.
The test system of a further data set is LN cells and SP cells. Put plainly: Flow cytometric analysis of lymph nodes and spleens. The class given is in vivo, mice. From the text: Cervical, axillary, and inguinal lymph nodes (LNs) were harvested from naive mice and EAU mice fed with a small molecule CSFR1 inhibitor or control diet. Single cell suspensions (1×10^6 cells/sample) were blocked with anti-mouse CD16/32 mAb (eBioscience, San Diego, Calif.) and stained with cell surface antibodies. Dead cells were stained with LIVE/DEAD™ fixable dead cell stain kit (blue or violet) (ThermoFisher). The following anti-mouse antibodies were used for staining: CD4-FITC (clone: GK1.5), CD25-PE (PC61.5), Foxp3-PE-Cy7 (FJK-6s), CD11c-FITC (N418), CD11b-PE (M1/70), CD45-APC (30-F11), IFN-γ-PE (XMG1.2), and IL-17A-APC (eBio17B7) (All purchased from eBioscience). CD3-Pacific blue (17A2) was purchase from BioLegend (San Diego, Calif.). For CD45/CD11b/CD11c detection, the cells were subjected for analysis without fixation. For regulatory T cell (CD3/CD4/CD25/Foxp3) staining, after staining with the cell surface markers, the cells were fixed and permeabilized with the Foxp3 staining buffer kit (eBioscience) and stained with Foxp3-PE-Cy7. For Th1 and Th17 detection (CD3/CD4/IFN-γ/IL-17), single cell suspensions were stimulated for 4 hours with 50 ng/mL phorbal myristate acetate (PMA) and 500 ng/ml ionomysin in culture media (10% FBS, RPMI1640, penicillin, streptomycin, β-mercaptoethanol) in the presence of GolgiPlug™ (BD Biosciences). The cells were stained with CD3-PB, CD4-FITC, and Live/Dead blue then fixed and permeabilized using an intracellular fixation and permeabilization buffer set (eBioscience). The cells were next stained with IFN-γ-PE and IL-17-APC. Flow cytometric data were acquired on a LSR II (BD Biosciences). Acquired data was analyzed using FlowJo 10.1 ( ).
For orientation: In flow cytometry, cells or beads pass a laser one at a time.

Data set [4] relates to EAU. The data set can be described thus: Adoptive transfer EAU. The class given is in vivo, mice. The protocol: Adoptive transfer EAU was induced as previously described with brief modification. Briefly, donor mice were immunized as described above and the spleens and draining lymph nodes (LNs) were collected on day 14 post-immunization. Lymphocytes from spleens and draining LNs were culture in the presence of 10 μg/ml IRBP-p and 10 ng/ml IL-23 (R&D systems, Minneapolis, Minn.) for 72 hours in RPMI 1640 supplemented with 10% FBS (Gibco), 2 mM glutamine (Gibco), and 100 U/ml penicillin and 100 μg/ml streptomycin. The non-adherent cells in the entire suspension were transferred to new dishes on day one and two of culture. After 3 days, the activated lymphocytes were purified by gradient centrifugation on Histopaque 1083 and counted. The cells were injected i.p. in 0.2 ml of PBS into […] (5×10^7 cells/mouse). Fundus were observed using Micron IV (Phoenix, Pleasanton, Calif.) and clinical score was graded on a scale between 0-4 in half-point increments as described previously. For histological assessment, enucleated eyes were fixed in a buffer of 70% methanol and 30% acetic acid. The fixed tissues were embedded in paraffin and processed. Sections of 5 μm were cut and stained with H&E. The severity of EAU in each eye was scored on a scale between 0-4 in half-point increments, according to a semiquantitative system described previously.

Data set [5] has as its system adherent retinal leukocytes. Put plainly: Lectin labeling of adherent retinal leukocytes. Format: in vivo, mice. As to conditions: EAU day 10. The protocol: The retinal vasculature and adherent leukocytes were imaged by perfusion labeling with fluorescein-isothiocyanate (FITC)-conjugated concanavalin A lectin (conA; Vector Laboratories, Burlingame, Calif.), as described previously with modifications. Briefly, after deep anesthesia, the chest cavity was opened and a 27-gauge cannula was introduced into the left ventricle. The mice were perfused through the left ventricle first using 5 ml of PBS, followed by fixation with 1% paraformaldehyde (5 ml), FITC-conjugated conA (20 μg/ml in PBS, 5 mL), and 5 ml of PBS. The eyes were then fixed in 4% PFA for 15 mins and the retinas were flatmounted. The total number of conA stained adherent leukocytes in the major retinal vessels (venules, arterioles, and collecting vessels) were counted under the direct observation with an epifluorescent microscopy (Axio Observer Z1; Carl Zeiss, Bayern, Germany).

A further data set relates to ICAM-1. Put plainly: Western blot of retinal ICAM-1. Format: in vivo, mice. The settings on record: EAU day 10; P<0.01. Here is the method:
(§1) Whole retinas were homogenized with a hand homogenizer and briefly sonicated in M-PER® Mammalian Protein Extract Reagent containing Halt Phosphatase Inhibitor Cocktail (both Thermo Scientific), and then ultracentifuged for 15 min at 17,000 g to collect soluble proteins as supernatants. 20 μg of the samples were electrophoresed through 4-15% polyacrylamide gels (Bio-Rad, Hercules, Calif., USA), and transferred onto PVDF membranes. After blocking with 5% nonfat dried milk, the membranes were incubated overnight with a primary antibody at 4° C. The membranes were then incubated for 1 hour at room temperature with a HRP-labeled secondary antibody. The following antibodies were used: rabbit anti-ICAM1 (179707, abcam), rabbit anti-VCAM1 (134047, abcam), and rabbit anti-β-actin (4970; Cell Signaling Technology). Immunoreactive bands were visualized by ECL. The images were taken by ChemiDoc MP (Bio-Rad) and analyzed using Image Lab 4.6 (Bio-Rad).
In general terms: Immunoblotting shows a protein as a band on a membrane.

The subject of another data set is VCAM-1. The data set can be described thus: Western blot of retinal VCAM-1. Format: in vivo, mice. The settings on record: EAU day 14. The protocol:
as §1

A short description of data set [6]: Behavior and health observation on supplemented diet. The class given is in vivo, mice. The settings on record: chow containing 1200 p.p.m. The protocol: Microglia depletion was performed using Cx3cr1^CreER×B6-iDTR (TG) mice or chow containing a small molecule CSFR1 inhibitor (Plexxikon Inc, Berkely, Calif., USA). To generate TG mice, Cx3cr1^CreER mice, which express Cre-ER fusion protein from endogenous CX3CR1 promoter enhance elements, were crossed with B6-iDTR mice, which contain a flox-STOP-flox diphtheria toxin receptor (DTR) in the ROSA26 locus. In this TG mice system, the Cre recombinase activation under the control of the Cx3cr1 promoter can be induced by tamoxifen, which leads to the surface expression of DTR on CX3CR1-expressing cells. The activation of Cre recombinase was induced by 5 consecutive days of tamoxifen administration via eye drops (10 μl/drop of 5 mg/ml in corn oil) three times a day at 6 weeks old. Then diphtheria toxin (DTX) (Sigma-Aldrich) was administered into the anterior chamber (a.c.) (25 ng in 1 μl of saline) to deplete CX3CR1-expressing. The control mice were given saline (a.c.). For microglia depletion using a small molecule CSFR1 inhibitor, mice were fed the control chow (AIN-76) or the chow containing 1200 p.p.m of the CSF1R inhibitor PLX 5622 one week prior to RD creation.

Data set [7] relates to circulating systemic immune cells. The settings on record: previous studies [31, 32]; cited from earlier work.
Data set [8] has as its system EAU. Put plainly: EAU in Cx3cr1CreER x B6-iDTR mice given tamoxifen alone. The class given is in vivo. The settings on record: day 21; for clinical EAU score: tamoxifen alone, systemically via i.p. injection.

Entries after “also recorded” stand apart in the source; their conditions may differ.

With `COc1ncc(F)cc1CNc1ccc(Cc2c[nH]c3ncc(C)cc23)c(F)n1` [a small molecule CSFR1 inhibitor], the “clinical EAU score (development of EAU)” value in the data set with EAU [1] (diet 1200 ppm started day -7, through day 21, p<0.001) is reported as “suppresses EAU; also recorded: completely suppressed”. Moreover, in the data set on EAU [1] (diet started day 0, until 28 days after EAU induction), the “clinical EAU score” value was “effectively suppressed”. For the same compound, in the data set on EAU [1] (diet started day 7), the “clinical EAU score” value is listed as “partially suppressed”. For the same compound, the “severity of EAU (clinical score)” value in the data set with EAU [1] (diet started day 14) is reported as “comparable to that of control mice”. In addition, the “animals developing EAU” value in the data set on EAU [1] (diet started day -7, by day 28, mild EAU, n=7) is “Only one animal”. Further, the histological score entry in the data set on EAU [1] (diet started day -7, day 21, p<0.01) is “suppressed EAU induction”. The “degree of microglia depletion” value in the data set with retinal microglia amounted to 100%. Further, in the data set on IRBP-p, the “delayed hypersensitivity (DH) response, ear swelling” value is “did not affect”. In [2], the lymphocyte proliferation result is “did not affect”. In addition, in [3], the “lymph node (LN) weight” value is “does not change; also recorded: neither parameter was affected” and the spleen weight entry is recorded as “does not change; also recorded: neither parameter was affected”. Moreover, in the data set on LN cells and SP cells (LNs and spleens, day 14), the “frequency of CD3+CD4+ T cells positive for IFN-γ+ or IL-17+” value was “does not suppress; also recorded: did not significantly change” and the “frequency of regulatory T cells (CD4+CD25+Foxp3+)” value was “did not increase”. Moreover, the “CD11c+CD11b+ cells” value in the data set with LN cells and SP cells (both LNs and splenic cells, day 14 of EAU, vs control-fed) is listed as “suppresses; also recorded: decreased”. For the same compound, the “severity of EAU in recipients (uveitogenicity of donor lymphocytes)” value with EAU [4] (inhibitor given to donor mice 7 days prior to EAU induction, recipients on regular diet) was “did not affect the severity of EAU; also recorded: does not significantly suppress”. Besides, in the data set on EAU [4] (inhibitor given to recipient mice 7 days prior to cell transfer), the “EAU response (clinical and histopathological score)” value is recorded as “suppressed; also recorded: suppresses EAU”. In data set [5], the “levels of adherent cells vs naïve mice” value is “similar” and the “number of adherent cells vs control EAU mice” value was “significantly fewer”. Also, in the data set with ICAM-1, the “retinal ICAM-1 protein expression vs naïve retina” value is recorded as “significantly higher”. Besides, the “retinal VCAM-1 expression” value with VCAM-1 is given as “unaffected”. Also, the “behavioral or health problems” value in [6] is listed as “No obvious behavioral or health problems”. Besides, in [7], the “effect on circulating systemic immune cells” value is listed as “minimal effect”.
Consider `CC/C(=C(\c1ccccc1)c1ccc(OCCN(C)C)cc1)c1ccccc1` [tamoxifen], for which the figures for the “clinical EAU score” value with EAU [8] and in the data set on EAU [8] (listed as Tamoxifen) were “significantly suppressed” and “suppresses EAU”, respectively. Moreover, the “EAU severity (clinical EAU score)” value with EAU [8] (tamoxifen topical via eye drops) is recorded as “did not significantly affect”.
